Source: US20240317721A1, “PYRAZOLYL DERIVATIVES AS INHIBITORS OF THE KRAS MUTANT PROTEIN” (NOVARTIS AG, priority 2021, published 2024)

Each molecule was assayed against KRasG12C (M1-K169, biotinylated on the N-terminus) (Homo sapiens (Human), UniProt P01116, G12C) (assay: Covalent competition assay: scintillation proximity assay (SPA) quantifying covalent modification of KRASG12C). Conditions: competition with radiolabeled covalent probe (Compound B/Compound A), 2 hours incubation, 10 nM KRasG12C.
Format: binding
How it was run: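 Test compounds compete with a radiolabeled covalent probe for modification of N-terminally biotinylated KRasG12C(M1-K169):GDP, final 10 nM protein, 25 nM radio-ligand, 475 nM unlabelled ligand, 2 h with agitation in 20 mM Tris-HCl pH 7.5, 150 mM NaCl, 0.1 mM MgCl2, 0.01% Tween-20.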
For C=CC(=O)N1CC2(CC(n3nc(N4CC[C@@H](CN5CC6CCC(C5)O6)CC4(C)C)c(-c4c(Cl)c(Cl)cc5[nH]ncc45)c3C)C2)C1 (single isomer, unassigned) [Example 314a], the IC50 was 2100 nM. With C=CC(=O)N1CC2(CC(n3nc(N4CC[C@@H](CN5CC6CCC(C5)O6)CC4(C)C)c(-c4c(Cl)c(Cl)cc5[nH]ncc45)c3C)C2)C1 (single isomer, unassigned) [Example 314b] the IC50 was 52 nM. C=CC(=O)N1CC2(CC(n3nc(N4CC[C@@H](CN5CCCN(C(C)=O)CC5)CC4(C)C)c(-c4c(Cl)c(Cl)cc5[nH]ncc45)c3C)C2)C1 (single isomer, unassigned) [Example 315a] gave an IC50 of 2000 nM. C=CC(=O)N1CC2(CC(n3nc(N4CC[C@@H](CN5CCCN(C(C)=O)CC5)CC4(C)C)c(-c4c(Cl)c(Cl)cc5[nH]ncc45)c3C)C2)C1 (single isomer, unassigned) [Example 315b] showed an IC50 of 7 nM. In the case of C=CC(=O)N1CC2(CC(n3nc(N4CC[C@@H](CN5CC6(CCOC6)C5)CC4(C)C)c(-c4c(Cl)c(Cl)cc5[nH]ncc45)c3C)C2)C1 (single isomer, unassigned) [Example 316a], the IC50 is reported as 1200 nM. For C=CC(=O)N1CC2(CC(n3nc(N4CC[C@@H](CN5CC6(CCOC6)C5)CC4(C)C)c(-c4c(Cl)c(Cl)cc5[nH]ncc45)c3C)C2)C1 (single isomer, unassigned) [Example 316b], the IC50 was 9 nM. C=CC(=O)N1CC2(CC(n3nc(N4CC[C@@H](CN5CCC6(C5)CN(C(C)=O)C6)CC4(C)C)c(-c4c(Cl)c(Cl)cc5[nH]ncc45)c3C)C2)C1 (single isomer, unassigned) [Example 317a] showed an IC50 of 888 nM. C=CC(=O)N1CC2(CC(n3nc(N4CC[C@@H](CN5CCC6(C5)CN(C(C)=O)C6)CC4(C)C)c(-c4c(Cl)c(Cl)cc5[nH]ncc45)c3C)C2)C1 (single isomer, unassigned) [Example 317b] gave an IC50 of 7 nM. C=CC(=O)N1CC2(CC(n3nc(N4CC[C@@H](CN5C6CCC5CN(C(C)=O)C6)CC4(C)C)c(-c4c(Cl)c(Cl)cc5[nH]ncc45)c3C)C2)C1 (single isomer, unassigned) [Example 318a] gave an IC50 of 4000 nM. For C=CC(=O)N1CC2(CC(n3nc(N4CC[C@@H](CN5C6CCC5CN(C(C)=O)C6)CC4(C)C)c(-c4c(Cl)c(Cl)cc5[nH]ncc45)c3C)C2)C1 (single isomer, unassigned) [Example 318b], the IC50 was 7 nM. Molecule C=CC(=O)N1CC2(CC(n3nc(N4CC[C@@H](CN5CCN(C(C)=O)CC5)CC4(C)C)c(-c4c(Cl)c(Cl)cc5[nH]ncc45)c3C)C2)C1 (single isomer, unassigned) [Example 319a] has an IC50 of 2700 nM. C=CC(=O)N1CC2(CC(n3nc(N4CC[C@@H](CN5CCN(C(C)=O)CC5)CC4(C)C)c(-c4c(Cl)c(Cl)cc5[nH]ncc45)c3C)C2)C1 (single isomer, unassigned) [Example 319b] was tested, and the IC50 was 9 nM. Work on C=CC(=O)N1CC2(CC(n3nc(N4CC[C@@H](CN5CCN(C6COC6)C[C@@H]5COC)CC4(C)C)c(-c4c(Cl)c(Cl)cc5[nH]ncc45)c3C)C2)C1 (single isomer, unassigned) [Example 320a] yielded an IC50 of 3300 nM. In the case of C=CC(=O)N1CC2(CC(n3nc(N4CC[C@@H](CN5CCN(C6COC6)C[C@@H]5COC)CC4(C)C)c(-c4c(Cl)c(Cl)cc5[nH]ncc45)c3C)C2)C1 (single isomer, unassigned) [Example 320b], the IC50 is reported as less than 5 nM. With C=CC(=O)N1CC2(CC(n3nc(N4C[C@H]5C[C@@H]4CN5C(C)=O)c(-c4c(Cl)c(C)cc5[nH]ncc45)c3C)C2)C1 [Example 5, 1-(6-(3-((1R,4R)-5-acetyl-2,5-diazabicyclo[2.2.1]heptan-2-yl)-4-(5-chloro-6-methyl-1H-indazol-4-yl)-5-methyl-1H-pyrazol-1-yl)-2-azaspiro[3.3]heptan-2-yl)prop-2-en-1-one] the IC50 was 2200 nM. With C=CC(=O)N1CC2(CC(n3nc(N4C[C@@H]5C[C@H]4CN5C(C)=O)c(-c4c(Cl)c(C)cc5[nH]ncc45)c3C)C2)C1 [Example 6, 1-(6-(3-((1S,4S)-5-acetyl-2,5-diazabicyclo[2.2.1]heptan-2-yl)-4-(5-chloro-6-methyl-1H-indazol-4-yl)-5-methyl-1H-pyrazol-1-yl)-2-azaspiro[3.3]heptan-2-yl)prop-2-en-1-one] the IC50 was 1000 nM. C=CC(=O)N1CC2(CC(n3nc(N4Cc5cnn(C)c5C4)c(-c4c(Cl)c(C)cc5[nH]ncc45)c3C)C2)C1 [Example 12, 1-(6-(4-(5-chloro-6-methyl-1H-indazol-4-yl)-5-methyl-3-(1-methyl-4,6-dihydropyrrolo[3,4-c]pyrazol-5(1H)-yl)-1H-pyrazol-1-yl)-2-azaspiro[3.3]heptan-2-yl)prop-2-en-1-one] showed an IC50 of 1400 nM. C=CC(=O)N1CC2(CC(n3nc(N4CCC5C(=O)N(C)CC5C4)c(-c4c(Cl)c(C)cc5[nH]ncc45)c3C)C2)C1 (stereo not drawn) [Example 16, (3aS*,7aS*)-5-(1-(2-acryloyl-2-azaspiro[3.3]heptan-6-yl)-4-(5-chloro-6-methyl-1H-indazol-4-yl)-5-methyl-1H-pyrazol-3-yl)-2-methyloctahydro-1H-pyrrolo[3,4-c]pyridin-1-one] was tested, and the IC50 was 1000 nM. In the case of C=CC(=O)N1CC2(CC(n3nc(N4CCC5C(=O)N(C)CC5C4)c(-c4c(Cl)c(C)cc5[nH]ncc45)c3C)C2)C1 (stereo not drawn) [Example 17, (3aS*,7aS*)-5-(1-(2-acryloyl-2-azaspiro[3.3]heptan-6-yl)-4-(5-chloro-6-methyl-1H-indazol-4-yl)-5-methyl-1H-pyrazol-3-yl)-2-methyloctahydro-1H-pyrrolo[3,4-c]pyridin-1-one], the IC50 is reported as 829 nM. C=CC(=O)N1CC2(CC(n3nc(N4CCC(=O)CC45CCC5)c(-c4c(Cl)c(C)cc5[nH]ncc45)c3C)C2)C1 [Example 46, 5-(1-(2-acryloyl-2-azaspiro[3.3]heptan-6-yl)-4-(5-chloro-6-methyl-1H-indazol-4-yl)-5-methyl-1H-pyrazol-3-yl)-5-azaspiro[3.5]nonan-8-one] showed an IC50 of 138 nM. Work on C=CC(=O)N1CC2(CC(n3nc(N4CCC(=O)CC45CCC5)c(-c4c(Cl)c(C)cc5[nH]ncc45)c3C)C2)C1 [Example 47, 5-(1-(2-acryloyl-2-azaspiro[3.3]heptan-6-yl)-4-(5-chloro-6-methyl-1H-indazol-4-yl)-5-methyl-1H-pyrazol-3-yl)-5-azaspiro[3.5]nonan-8-one] yielded an IC50 greater than 5000 nM. C=CC(=O)N1CC2(CC(n3nc(N4CCCC45CCOCC5)c(-c4c(Cl)c(C)cc5[nH]ncc45)c3C)C2)C1 [Example 60, 1-(6-(4-(5-chloro-6-methyl-1H-indazol-4-yl)-5-methyl-3-(8-oxa-1-azaspiro[4.5]decan-1-yl)-1H-pyrazol-1-yl)-2-azaspiro[3.3]heptan-2-yl)prop-2-en-1-one] gave an IC50 of 4900 nM. Molecule C=CC(=O)N1CC2(CC(n3nc(N4[C@H]5CC[C@@H]4CN(C)CC5)c(-c4c(Cl)c(C)cc5[nH]ncc45)c3C)C2)C1 [Example 64, 1-(6-(4-(5-chloro-6-methyl-1H-indazol-4-yl)-5-methyl-3-((1R,6S)-3-methyl-3,9-diazabicyclo[4.2.1]nonan-9-yl)-1H-pyrazol-1-yl)-2-azaspiro[3.3]heptan-2-yl)prop-2-en-1-one] has an IC50 of 519 nM. C=CC(=O)N1CC2(CC(n3nc(N4CCC(N5C6CCC5COC6)CC4(C)C)c(-c4c(Cl)c(C)cc5[nH]ncc45)c3C)C2)C1 [Example 74a, 1-(6-(3-(4-((1R,5S)-3-oxa-8-azabicyclo[3.2.1]octan-8-yl)-2,2-dimethylpiperidin-1-yl)-4-(5-chloro-6-methyl-1H-indazol-4-yl)-5-methyl-1H-pyrazol-1-yl)-2-azaspiro[3.3]heptan-2-yl)prop-2-en-1-one] was tested, and the IC50 was greater than 5000 nM.
